Each structure is given as a SMILES string. Structures can show the parent of a compound that is named as a salt.

One assay deals with T1, kappa opioid receptor (Mus musculus, UniProt P33534).
T1 construct: Mouse brain membranes were prepared as described by; from tissue; host or cells: mouse brain membranes
The assay can be described thus: Radioligand binding, kappa opioid receptor ([3H]-U69593, mouse brain membranes). The conditions noted are these: selectivity ratio, kappa vs delta. Here is the method:
(§1) Mouse brain membranes were prepared as described by Kosteriitz (Br. J. Pharmacol., 1981, 73, 939.). […] The binding of the mu ligand [^3 H]-DAMGO (Eur. J. Pharmacol., 1989, 166, 213) and of the kappa ligand [^3 H]-U69593 (Excerpta Medica, 1990, 211) were carried out at 0.5 nM. The non-specific binding was determined in presence of naloxone (10 μM) for all tritiated ligands. […] The IC50 obtained were used to calculate the inhibitory constants (Ki) accordingly to the Cheng and Prusoff relation (Biochem. Pharmacol., 1973, 22, 3099).

A further assay deals with T2, delta opioid receptor (Mus musculus, UniProt P32300).
T2 construct: Mouse brain membranes were prepared as described by; from tissue; host or cells: mouse brain membranes
Put plainly: Radioligand binding, delta opioid receptor ([3H]-DADLE, mouse brain membranes). The conditions noted are these: [3H]-DADLE binding, 1.3 nM, with 40 nM unlabelled DAMGO. Here is the method:
as §1

For assay [1], the target named is delta opioid receptor (mouse vas deferens). The assay can be described thus: Mouse vas deferens (MVD) bioassay, delta agonist/antagonist activity. Here is the method:
The delta agonist/antagonist activity of the compounds of the present invention is determined in the mouse vas deferens (MVD) bioassay as described below.
Vasa deferentia were obtained from CD-1 mice and were suspended in a Mg^2+ -free Krebs buffer at 37° C. The tissues were electrically stimulated with pulse trains having the following parameters: train duration 50 ms, stimulus duration 2 ms, frequency of stimuli 50 Hz, maximal voltage 60-70 V, train frequency 0.1 Hz. Concentration response curves for each compounds were constructed cumulatively. Linear regression analysis and IC50 concentrations were evaluated according to Tallarida and Murray (Manual of Pharmacological Calculations, Springer Verlag N.Y., 1981).

The target in a further assay is T3, mu opioid receptor (Mus musculus, UniProt P42866).
T3 construct: Mouse brain membranes were prepared as described by; from tissue; host or cells: mouse brain membranes
Put plainly: Radioligand binding, mu opioid receptor ([3H]-DAMGO, mouse brain membranes). The following applies: selectivity ratio, mu vs delta. Here is the method: as §1

T3 sequence (P42866 whole entry): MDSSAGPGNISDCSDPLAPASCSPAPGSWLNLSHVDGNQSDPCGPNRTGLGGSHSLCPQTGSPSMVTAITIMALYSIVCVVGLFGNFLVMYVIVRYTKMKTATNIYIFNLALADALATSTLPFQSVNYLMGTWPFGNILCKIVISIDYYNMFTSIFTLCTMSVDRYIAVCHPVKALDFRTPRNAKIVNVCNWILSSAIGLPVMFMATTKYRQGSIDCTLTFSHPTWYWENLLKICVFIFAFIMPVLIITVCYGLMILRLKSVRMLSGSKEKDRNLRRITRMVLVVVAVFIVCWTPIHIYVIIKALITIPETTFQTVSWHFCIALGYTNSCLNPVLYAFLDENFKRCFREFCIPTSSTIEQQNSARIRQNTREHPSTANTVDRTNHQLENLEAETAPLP
T1 sequence (P33534 whole entry): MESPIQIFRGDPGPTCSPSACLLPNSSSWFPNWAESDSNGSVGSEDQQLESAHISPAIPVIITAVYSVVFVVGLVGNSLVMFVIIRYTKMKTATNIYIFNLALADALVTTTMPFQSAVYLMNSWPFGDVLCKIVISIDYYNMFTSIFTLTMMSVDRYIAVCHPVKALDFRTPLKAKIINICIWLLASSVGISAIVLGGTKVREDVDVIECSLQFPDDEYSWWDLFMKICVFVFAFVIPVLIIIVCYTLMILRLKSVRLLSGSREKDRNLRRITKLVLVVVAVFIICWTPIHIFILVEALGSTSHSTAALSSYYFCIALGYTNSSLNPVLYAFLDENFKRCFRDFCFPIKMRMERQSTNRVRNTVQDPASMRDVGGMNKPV
T2 sequence (P32300 whole entry): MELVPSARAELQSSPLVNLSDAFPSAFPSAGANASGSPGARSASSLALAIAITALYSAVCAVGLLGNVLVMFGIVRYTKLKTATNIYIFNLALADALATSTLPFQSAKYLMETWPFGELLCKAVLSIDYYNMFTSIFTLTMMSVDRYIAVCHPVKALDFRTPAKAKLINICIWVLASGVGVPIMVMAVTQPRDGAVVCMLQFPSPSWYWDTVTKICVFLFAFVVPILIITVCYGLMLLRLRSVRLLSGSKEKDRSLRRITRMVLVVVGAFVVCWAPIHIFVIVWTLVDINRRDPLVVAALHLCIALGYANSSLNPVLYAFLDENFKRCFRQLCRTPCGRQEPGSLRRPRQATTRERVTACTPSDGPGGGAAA

In general, Ki refers to the equilibrium dissociation constant of an inhibitor or competing ligand from its target. A high value points to weaker binding. A word on the IC50: it is the midpoint of a concentration-inhibition curve. Take `CCN(CC)C(=O)c1[nH]c2c(c1C)C[C@H]1[C@H]3Cc4ccc(OC)c5c4[C@@]1(CCN3C)[C@H]2O5` [Example 7, [8R-(4bS*,8α,8aβ,12bβ)]-11-Diethylaminocarbonyl-7,10-dimethyl-1-methoxy-5,6,7,8,12,12b-hexahyro-(9H)-4,8-methanobenzofuro[3,2-e]pyrrolo[2,3-g]isoquinoline hydrochloride]: at kappa opioid receptor, the “Ki kappa/Ki delta” value amounted to 2259. This molecule also registered a Ki at delta opioid receptor of 1.59 nM. The IC50 in assay [1] (electrically stimulated mouse vas deferens, 37° C.) was found to be 25 nM. The “shift of the dose-response curve by NTI (selective antagonism)” value in assay [1] (in presence of 30 nM of NTI (naltrindole), MVD) is listed as 10 fold. In addition, the “Ki mu/Ki delta” value on mu opioid receptor was 218.

The record behind these values is patent US5981540A, “Heterocycle-condensed morphinoid derivatives” (SmithKline Beecham Farmaceutici S.P.A., priority 1994, dated 1999).
